In patent publication US7846671B2, “Methods of screening for agents that modulate the interaction of RGS and Gαq and urinary incontinence” (Bristol-Myers Squibb Company, priority 2002, dated 2010):
“Also recorded” adds a separate entry of the source.

Experiments:
rat bladder strips = experiment: Isolated rat bladder strips: inhibition of carbachol-evoked contraction
Protocol: Isolated Rat Bladder Strips
Male rats (Harlan, Sprague Dawley, 250-350 g) were sacrificed by decapitation, the bladder removed and cleaned of connective tissue. Strips of bladder were then cut from the bladder body and each was placed in an organ bath, suspended between a fixed hook and a force transducer, containing oxygenated physiological buffer (composition in mM: NaCl 118.4, KCl 4.7, KH2PO4 1.2, MgSO4 1.3, CaCl2 1.8, glucose 10.1, NaHCO3 25, gassed with 95%O2/5%CO2) and maintained at 37° C. Force generated by the bladder strips was recorded and measured using an AcqKnowledge data acquisition system (AcqKnowledge for MP100WS, Biopac Systems Inc., Goleta, Calif.).
The bladder strips were primed by stimulating them with 10 μM carbachol to evoke a contraction. The strips were then washed multiple times with fresh physiological buffer and allowed to fully relax. Following a period of recovery, the strips were again challenged with 10 μM carbachol to produce a contraction; this contractile response served as the control response. The strips were again washed multiple times and allowed to fully relax (45 minutes). Test compound or vehicle was then added to each organ bath. Following a one hour incubation period, the strips were again stimulated with 10 μM carbachol and the contractile response measured.
The percent inhibition of the carbachol response by the test compounds was calculated by comparing control and post-compound carbachol responses corrected for vehicle effects.

C. elegans = C. elegans compound treatment: neuromuscular and egg-laying phenotypes
Protocol: C. elegans strains were cultured and maintained according to standard procedures (Brenner, 1974; Hodgkin, 1988). All strains were assayed at 20° C. unless otherwise indicated. compound was mixed with killed bacteria slurry (strain OP50, taken through multiple freeze-thaw cycles) to 2× desired final concentration. Adult wildtype (Bristol N2) or mutant hermaphrodites were collected in M9. Worms were mixed 1:1 with compound/bacteria mixture, and plated on peptone-free NGM plates. Plates were allowed to dry, and then placed at 20° C. until assayed. For egg-laying assays, adults were treated overnight with compound. Approximately thirty animals were loaded onto agar pads made on glass slides and examined under Nomarski optics. Animals were scored as egg-laying defective if they contained>comma stage embryos.

[1] = tested on: Gq signaling in Hek 293 kidney cells; experiment: [Ca2+]i measurement, carbachol-induced calcium signal in HEK 293 cells; assay type: cell-based, human
Protocol: • 1. HEK 293 or Clonetics primary human bladder smooth muscle cells were plated at a concentration of 7e3 cells/well in Poly-L lysine coated 96 well plates, white with clear bottoms (Costar). • 2. The plates are allowed to attach overnight at 37° C. 5%CO2. The cells were rinsed 2× with Krebs-HEPES buffer and then loaded with 4 uM Fluo4 (Molecular Probes) for 60 minutes in the same buffer containing 1% (wt/vol) Pluronic F-127 and 0.25 mM sulfinpyrazone. • 3. After loading the cells were rinsed 3× with Krebs-HEPES buffer containing 0.5% (wt/vol) BSA (Sigma Chemical) • 4. Buffer alone or buffer containing test compounds, was injected sequentially into separate wells and the fluorescence intensity monitored in a Victor2 96 well plate fluorometer (PE-Wallac). Measurements were taken at 1-s intervals using an excitation wavelength of 485 nm and emissions filter of 535 nm. • 5. Five baseline measurements were taken at 1-s intervals prior to each injection (see FIGS. 4A and 4B).
Calcium assays were run by standard protocols as described above and in Zhu et al., 1998, J. Biol Chem 273:133-142. It is known that calcium signals in response to carbachol have both a Gq and a Go/Gi signaling component. Pertussis toxin is a known inhibitor of Go/Gi signaling in cells. We asked the question if Compound I was inhibiting Gq or Go/Gi signals in Hek 293 kidney cells. […] to block the Go/I but not Gq signals. […] If however Compound I were inhibiting Gq signal specifically, then we would expect the combination of pertussis toxin (hitting Go/Gi) and Gq.

RGS7/Gq = biological target: T1, RGS7/Gq (Homo sapiens, UniProt P49802+P50148); experiment: Co-immunoprecipitation of Gq with RGS7 from transfected Hek 293 cells; assay type: binding; conditions: immunoprecipitation blot
T1 sequence (P49802 1-469 isoform P49802-2): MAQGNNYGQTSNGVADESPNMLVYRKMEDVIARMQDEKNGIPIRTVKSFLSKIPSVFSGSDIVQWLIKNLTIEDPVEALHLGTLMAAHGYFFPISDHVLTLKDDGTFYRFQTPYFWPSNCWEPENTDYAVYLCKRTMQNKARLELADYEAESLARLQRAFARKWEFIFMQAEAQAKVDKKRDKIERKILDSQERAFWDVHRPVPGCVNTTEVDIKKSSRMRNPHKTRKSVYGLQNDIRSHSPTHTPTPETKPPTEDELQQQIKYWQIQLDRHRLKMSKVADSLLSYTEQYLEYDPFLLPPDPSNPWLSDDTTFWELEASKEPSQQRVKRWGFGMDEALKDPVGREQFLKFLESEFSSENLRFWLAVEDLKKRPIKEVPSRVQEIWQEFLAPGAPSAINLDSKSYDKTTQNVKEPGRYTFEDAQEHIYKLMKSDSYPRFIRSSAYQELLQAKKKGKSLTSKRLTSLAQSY
T1 sequence (P50148 1-359): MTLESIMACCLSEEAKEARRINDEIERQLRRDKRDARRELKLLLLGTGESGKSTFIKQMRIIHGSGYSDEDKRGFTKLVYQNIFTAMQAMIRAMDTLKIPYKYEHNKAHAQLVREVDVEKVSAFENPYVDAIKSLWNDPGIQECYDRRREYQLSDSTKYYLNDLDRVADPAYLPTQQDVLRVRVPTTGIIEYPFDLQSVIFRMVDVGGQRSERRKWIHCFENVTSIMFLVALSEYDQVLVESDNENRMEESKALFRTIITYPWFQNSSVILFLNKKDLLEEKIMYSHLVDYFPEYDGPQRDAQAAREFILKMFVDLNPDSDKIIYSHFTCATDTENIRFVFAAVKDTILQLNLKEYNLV
T1 sequence (O14775 43-395 partner limits assumed): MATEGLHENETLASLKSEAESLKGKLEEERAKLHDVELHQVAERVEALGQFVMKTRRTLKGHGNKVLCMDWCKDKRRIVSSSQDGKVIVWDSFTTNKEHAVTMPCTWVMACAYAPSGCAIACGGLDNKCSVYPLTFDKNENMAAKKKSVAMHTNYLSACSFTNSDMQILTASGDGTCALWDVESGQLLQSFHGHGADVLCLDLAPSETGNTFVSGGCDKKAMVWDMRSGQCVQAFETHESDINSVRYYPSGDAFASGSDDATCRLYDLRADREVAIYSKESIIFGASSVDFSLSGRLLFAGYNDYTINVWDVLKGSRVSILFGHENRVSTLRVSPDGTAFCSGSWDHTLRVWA
Protocol: Hek 293 cells were transfected with CMV-G alpha qHA, CMV-mycRGS-7 and CMV-Gbeta5. 48 hours later the cells were harvested and lysed. Antibody to the myc epitope was utilized to immunoprecipitate RGS-7 in the presence or absence of ALF4-. The precipitated proteins were split into two fractions and loaded onto gels and western blotted on to nitrocellulose. In FIG. 6, the left blot (1) was probed with anti-myc antibody to detect RGS-7. RGS-7 was immunoprecipitated by the anti-myc antibody in the presence and absence of ALF4-. […] A G alpha q protein band was detected to have associated with RGS-7 and precipitated in the presence of ALF4- (lanes A) but not in the absence of ALF4- (lane B). In the second experiment, RGS-7 was immuno-precipitated again with the Myc epitope to which it was fused and the presence of G alpha q was detected in the presence or absence of ALF4- or different concentrations of Compound III. […] This increase in RGS-7 affinity would be predicted to be the same for other RGS7 family members such as RGS 6,9 and 11, as they have been shown previously to have similar affinities and effects on G alpha q. In addition this assay provides a method for screening for compounds that affect the interaction of RGS proteins and G alpha q.
In FIG. 5B, Compounds I, II and III affect the affinity of Gq and RGS proteins for one another. FIG. 5B is an immunoprecipitation blot of myc tagged RGS which has been probed with an anti hemagglutinin antibody to detect a hemagglutinin tagged Gαq. […] The ability of Compounds I, II and III to increase the affinity of Gq and RGS is a novel mechanism by which one can Gαq activity and such compounds and screens for additional compounds with such activity are useful wherever one desires to antagonize g protein signaling that involves Gαq and RGS proteins. […]

Row | Compound | Relaxation of bladder smooth muscle strips contracted with carbachol (rat bladder strips) | inhibition at 10 µM (rat bladder strips; Rattus norvegicus, 10 μM compound, 1 h incubation, 10 μM carbachol, read-out: Inhibition of the carbachol response) [%] | Neuromuscular defects (pharyngeal pumping, body movement, egg-laying) (C. elegans) | Carbachol induced calcium influxes [1] | Combined effect with pertussis toxin on carbachol calcium signal [1] | Effect on function of human RGS and Gq signaling proteins via Ca++ signaling [1] | Gq versus Go/Gi specificity of calcium signal inhibition ([1]; carbachol) | Affinity of RGS7 and Gq (Gq co-precipitated with myc-RGS-7) (RGS7/Gq) | inhibition at 3 µM (rat bladder strips; Rattus norvegicus, 3 μM compound, 1 h incubation, 10 μM carbachol, read-out: Inhibition of the carbachol response) [%]
1 | O=c1[nH]c(-c2ccc(C(F)(F)F)cc2)nn1-c1cc(Cl)ccc1O [Compound I] | capable of relaxing strips of bladder smooth muscle | 40 to 60 | causes neuromuscular defects | blocked | cumulative | clearly able to effect the function of Gq and RGS | specifically inhibiting Gq signaling and not Go/Gi | increase the affinity of RGS7 with Gq; also recorded: clearly increase the affinity of Gq for RGS | 
2 | Alf4- [reference compound] |  |  |  |  |  |  |  | increases its affinity with RGS | 
3 | O=c1[nH]c(-c2ccc(Br)s2)nn1-c1cc(Cl)c(Br)cc1O [Compound II, 2-(4-bromo-5-chloro-2-hydroxyphenyl)-2,4-dihydro-5-(5-bromothien-2-yl)-3H-1,2,4-triazol-3-one] |  |  |  | blocked |  |  |  | clearly increase the affinity of Gq for RGS | 20 to 40
